In assay [1] the test system is B16-OVA tumor microenvironment. The assay can be described thus: Flow cytometry of immune cell populations in B16-OVA tumor tissue. It counts as in vivo, C57BL/6 mice. As to the method: Single cell suspensions were prepared from tumor tissues by treating with collagenase and analyzing for various immune cell populations using flow cytometry. Cell surface markers included CD3, CD8, Perforin, CD15CD11b (MDSC), and FoxP3 (Treg). […] The enhancement was even greater for combination therapy with anti-PD-1.

The test system of assay [2] is solid tumors, e.g. advanced or metastatic melanoma. The assay can be described thus: Biomarker findings in tumors. Type of assay: in vivo. An excerpt: Granzyme B is associated with cell death/apoptosis mediated by cytotoxic T lymphocytes (CTLs), natural killer (NK) cells, and cytotoxic T cells. Accordingly, in some embodiments, the biomarker is an observed increase in granzyme B expression in a tumor relative to a control. In some embodiments, the cancer is a solid tumor such as advanced or metastatic melanoma. […] Accordingly, in some embodiments, the biomarker is an observed increase in CD8^+ T cells and/or CD4^+ T cells in a tumor relative to a control. In other embodiments, the biomarker is an increase in the ratio of CD8^+ T cells to Treg cells. In some embodiments, the increase is observed by immunohistochemistry or expression levels of one or both of CD8A and CD8B. In some embodiments, an increase in CD8^+ T cells and/or CD4^+ T cells or CD8^+ T cells/Treg ratio in a tumor sample from a patient who has undergone treatment with […]-001 or X4-136 correlates with an increased likelihood that the patient will benefit from continued treatment with […]-001 alone or in combination with an immunotherapeutic agent, e.g., a checkpoint inhibitor such as a PD-1 antagonist. In some embodiments, the PD-1 antagonist is selected from nivolumab and pembrolizumab, or a biosimilar or variant of such PD-1 antagonists. In some embodiments, the checkpoint inhibitor is nivolumab. In some embodiments, the checkpoint inhibitor is a nivolumab biosimilar or variant. In some embodiments, the checkpoint inhibitor is pembrolizumab. In some embodiments, the checkpoint inhibitor is a pembrolizumab biosimilar or variant. In some embodiments, the tumor is a solid tumor such as advanced or metastatic melanoma. […] In some embodiments, the biomarker is IDO1. In some embodiments, the biomarker is CXCL10. In some embodiments, the biomarker is CXCL9. In some embodiments, the biomarker is HLA-DRA. In some embodiments, the biomarker is STAT1. In some embodiments, the biomarker is IFN-γ. In some embodiments, the biomarker is two or more of IDOL, CXCL10, CXCL9, HLA-DRA, STAT1 and IFN-γ. In some embodiments, the biomarker is three or more of IDO1, CXCL10, CXCL9, HLA-DRA, STAT1 and IFN-γ. In some embodiments, the biomarker is four or more of IDOL, CXCL10, CXCL9, HLA-DRA, STAT1 and IFN-γ. In some embodiments, the biomarker is five or more of IDOL, CXCL10, CXCL9, HLA-DRA, STAT1 and IFN-γ. In some embodiments, the biomarker is all of IDOL, CXCL10, CXCL9, HLA-DRA, STAT1 and IFN-γ. In some embodiments, the biomarker is an increase of all of IDO1, CXCL10, CXCL9, HLA-DRA, STAT1 and IFN-γ. In some embodiments, an increase in one, two, three, four, five, or all of IDOL, CXCL10, CXCL9, HLA-DRA, STAT1 and IFN-γ in a tumor sample from a patient who has undergone treatment with […]-001 correlates with an increased likelihood that the patient will benefit from continued treatment with […]-001 alone or in combination with an immunotherapeutic agent, e.g., a checkpoint inhibitor such as a PD-1 antagonist. In some embodiments, the PD-1 antagonist is selected from nivolumab and pembrolizumab, or a biosimilar or variant of such PD-1 antagonists. In some embodiments, the checkpoint inhibitor is nivolumab. In some embodiments, the checkpoint inhibitor is a nivolumab biosimilar or variant. In some embodiments, the checkpoint inhibitor is pembrolizumab. In some embodiments, the checkpoint inhibitor is a pembrolizumab biosimilar or variant. In some embodiments, the tumor is a solid tumor such as advanced or metastatic melanoma. In some embodiments, the biomarker or the use thereof is one of those described in Ayers et al., Journal of Clinical Investigation 2017, 127(8), 2930-2940 [29] (“Ayers et al. (2017)”) or WO 2016/094377, each of which is hereby incorporated by reference. […] Accordingly, in some embodiments, the biomarker is maintenance or decrease of Treg levels in a tumor relative to a control. In some embodiments, the biomarker is the level of FoxP3 expression, which serves as a means to determine the Treg level. […]

Where [3] appears, read: solid tumors, e.g. advanced or metastatic melanoma.

Each structure is given as a SMILES string.

Consider `NCCCCN(Cc1nc2ccccc2[nH]1)[C@H]1CCCc2cccnc21` [X4P-001], for which the “suppressor cell counts (Tregs and MDSC)” value in assay [1] is listed as “substantially decreased”. In assay [2] (in vivo), the “CTL signature gene expression in tumor samples or the tumor microenvironment” value is “increase”; the “IFN-γ gene signature (panel of IFN-γ related genes)” value is “increase”; the “PD-L1 expression in tumor samples and the tumor microenvironment” value is listed as “increase”. For the same compound, in assay [2] (setting [3]), the “granzyme B (GZMB) expression in cancers” value is recorded as “increases”, the “levels of Treg cells” value was “without significantly increasing”, the “levels of macrophages in the tumor” value was “without significantly modulating” and the “observed numbers of CD8+ T cells and/or CD4+ T cells in cancers” value was “increases”. Moreover, the “levels of the VISTA panel of biomarkers” value in assay [2] (tumor samples and the tumor microenvironment) is reported as “modulate”.
